ChEMBL document CHEMBL1143749, “A new therapeutic approach in Alzheimer disease: some novel pyrazole derivatives as dual MAO-B inhibitors and antiinflammatory analgesics” (Bioorg Med Chem, 2007)

How the values were obtained:
[1] = system: Mus musculus; assay: Inhibition of carrageenan-induced hind paw oedema in Swiss Albino mouse at 100 mg/kg, po after 90 mins relative to control; assay type: functional; conditions: for inhibition in vivo at 100 mg/kg: Mus musculus, Swiss Albino, po, 1.5 h
[2] = system: Mus musculus; assay: Analgesic activity against p-Benzoquinone-induced writhings in Swiss Albino mouse assessed as number writhings at 100 mg/kg, po; assay type: functional
[3] = system: Mus musculus; assay: Inhibition of p-Benzoquinone-induced writhings in Swiss Albino mouse at 100 mg/kg, po relative to control; assay type: functional; conditions: for inhibition in vivo at 100 mg/kg: Mus musculus, Swiss Albino, po
[4] = system: Mus musculus; assay: Inhibition of carrageenan-induced hind paw oedema in Swiss Albino mouse at 100 mg/kg, po after 270 mins relative to control; assay type: functional; conditions: for inhibition in vivo at 100 mg/kg: Mus musculus, Swiss Albino, po, 4.5 h
[5] = system: Mus musculus; assay: Toxicity in Swiss Albino mouse assessed as ulcerogenic abdomen lesions at 100 mg/kg, po; assay type: organism-based; set-up: dose 100 mg/kg, route oral; conditions: in vivo
[6] = biological target: T1, Amine oxidase [flavin-containing] A (Rattus norvegicus, UniProt P21396); assay: Inhibition of rat liver MAOA after 60 mins pre-incubation
T1 sequence (P21396 whole entry): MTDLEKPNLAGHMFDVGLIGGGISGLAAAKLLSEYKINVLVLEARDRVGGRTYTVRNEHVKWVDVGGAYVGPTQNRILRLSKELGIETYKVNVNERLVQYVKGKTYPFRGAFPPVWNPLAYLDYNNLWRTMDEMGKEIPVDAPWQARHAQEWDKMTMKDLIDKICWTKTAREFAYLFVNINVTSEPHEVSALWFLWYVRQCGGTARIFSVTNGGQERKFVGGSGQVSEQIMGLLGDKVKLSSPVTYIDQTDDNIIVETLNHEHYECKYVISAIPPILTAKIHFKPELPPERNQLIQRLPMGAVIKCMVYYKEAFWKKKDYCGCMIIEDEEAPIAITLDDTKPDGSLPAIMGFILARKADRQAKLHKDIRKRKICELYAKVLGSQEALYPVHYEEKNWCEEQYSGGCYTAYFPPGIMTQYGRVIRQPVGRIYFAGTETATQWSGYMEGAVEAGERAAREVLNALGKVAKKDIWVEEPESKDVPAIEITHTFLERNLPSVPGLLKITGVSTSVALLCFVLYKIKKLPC

[7] = system: Mus musculus; assay: Inhibition of carrageenan-induced hind paw oedema in Swiss Albino mouse at 100 mg/kg, po after 360 mins relative to control; assay type: functional; conditions: for inhibition in vivo at 100 mg/kg: Mus musculus, Swiss Albino, po, 6 h
[8] = system: Mus musculus; assay: Inhibition of carrageenan-induced hind paw oedema in Swiss Albino mouse at 100 mg/kg, po after 180 mins relative to control; assay type: functional; conditions: for inhibition in vivo at 100 mg/kg: Mus musculus, Swiss Albino, po, 3 h
[9] = biological target: T2, Amine oxidase [flavin-containing] B (Rattus norvegicus, UniProt P19643); assay: Inhibition of rat liver MAOB after 60 mins pre-incubation
T2 sequence (P19643 whole entry): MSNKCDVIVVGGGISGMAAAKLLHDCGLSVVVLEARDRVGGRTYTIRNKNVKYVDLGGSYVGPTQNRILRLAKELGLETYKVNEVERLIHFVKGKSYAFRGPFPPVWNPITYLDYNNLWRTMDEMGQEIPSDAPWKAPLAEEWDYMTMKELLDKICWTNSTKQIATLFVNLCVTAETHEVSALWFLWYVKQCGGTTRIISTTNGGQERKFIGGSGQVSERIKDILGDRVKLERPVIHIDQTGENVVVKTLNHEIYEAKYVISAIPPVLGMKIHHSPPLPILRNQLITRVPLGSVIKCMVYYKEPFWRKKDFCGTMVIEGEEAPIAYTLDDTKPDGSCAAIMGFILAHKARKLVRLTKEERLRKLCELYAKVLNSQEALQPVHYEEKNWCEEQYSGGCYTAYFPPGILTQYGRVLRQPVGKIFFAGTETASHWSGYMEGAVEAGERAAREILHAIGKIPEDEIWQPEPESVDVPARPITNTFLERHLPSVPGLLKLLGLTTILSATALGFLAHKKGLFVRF

[10] = biological target: T1, Amine oxidase [flavin-containing] A; assay: Inhibition of rat liver MAOA
[11] = system: Mus musculus; assay: Inhibition of acetic acid-induced capillary permeability in Swiss Albino mouse at 100 mg/kg, po; assay type: functional
[12] = biological target: T2, Amine oxidase [flavin-containing] B; assay: Inhibition of rat liver MAOB
[13] = system: Mus musculus; assay: Inhibition of acetic acid-induced capillary permeability in Swiss Albino mouse at 10 mg/kg, po; conditions: read-out: Inhibition

Structure (SMILES)	inhibition in vivo at 100 mg/kg [1]	writhing count [2]	inhibition in vivo at 100 mg/kg [3]	inhibition in vivo at 100 mg/kg [4]	Activity [5]	IC50 [6]	inhibition in vivo at 100 mg/kg [7]	inhibition in vivo at 100 mg/kg [8]	IC50 [9]	Inhibition [1]	Inhibition [3]	Inhibition [4]	Inhibition [7]	Inhibition [8]	Ki [10]	inhibition in vivo at 100 mg/kg [11]	Ki [12]	Activity [2]	inhibition in vivo at 10 mg/kg [13]
CCNC(=S)N1N=C(c2ccc(C)cc2)CC1c1ccc[nH]1 (stereo not drawn)	4.9%	41.3 writhings	15.4%	12.4%	Non-toxic	329 µM	16.3%	10.5%	369 µM										
Cc1ccc(C2=NN(C(=S)Nc3ccccc3)C(c3ccc[nH]3)C2)cc1 (stereo not drawn)		45.2 writhings			Non-toxic	300 µM			351 µM	9.1%	7.4%	6.1%	11.8%	13.1%					
CNC(=S)N1N=C(c2ccc(Cl)cc2)CC1c1ccc[nH]1 (stereo not drawn)		37.8 writhings	22.5%	7.2%		11.2 µM	1.9%	6.6%	416 µM						13.2 µM	20.7%			
CCCNC(=S)N1N=C(c2ccc(Cl)cc2)CC1c1ccc[nH]1 (stereo not drawn)	19.8%	20.5 writhings	57.9%	23.9%	Non-toxic	29.2 µM	28.1%	25.2%	421 µM						33.2 µM	28.3%			
CCNC(=S)N1N=C(c2ccc(OC)cc2)CC1c1ccc[nH]1 (stereo not drawn)	23.2%	21.2 writhings	56.6%	18.9%	Non-toxic	400 µM	27.6%	22.7%	22.1 µM							25.9%	24 µM		
CCCNC(=S)N1N=C(c2ccc(OC)cc2)CC1c1ccc[nH]1 (stereo not drawn)	20.3%	19.5 writhings	60%	22.6%	Non-toxic	409 µM	32.8%	23.6%	29.1 µM							34.8%	33.7 µM		
CCNC(=S)N1N=C(c2ccc(Cl)cc2)CC1c1ccc[nH]1 (stereo not drawn)	16.1%	21.5 writhings	55.9%	20.6%	Non-toxic	20.2 µM	24%	21.3%	450 µM						26.9 µM	23.5%			
CNC(=S)N1N=C(c2ccc(OC)cc2)CC1c1ccc[nH]1 (stereo not drawn)	14.2%	39.2 writhings	19.7%	10.5%	Non-toxic	430 µM	17.7%	14.7%	12.5 µM								12.5 µM		
CNC(=S)N1N=C(c2ccc(C)cc2)CC1c1ccc[nH]1 (stereo not drawn)	13.2%	39.7 writhings	18.6%	12.2%	Non-toxic	295 µM	16.3%	11.2%	349 µM										
CCCNC(=S)N1N=C(c2ccc(C)cc2)CC1c1ccc[nH]1 (stereo not drawn)	14.6%	25.3 writhings	48.2%	15.7%	Non-toxic	369 µM	22.7%	20.9%	389 µM										
COc1ccc(C2=NN(C(=S)Nc3ccccc3)C(c3ccc[nH]3)C2)cc1 (stereo not drawn)	20.7%	25.2 writhings	48.4%	16.5%	Non-toxic	431 µM	21.6%	22.6%	30.1 µM							22.3%	37.1 µM		
Cl.S=C(Nc1ccccc1)N1N=C(c2ccc(Cl)cc2)CC1c1ccc[nH]1 (stereo not drawn)					Non-toxic	59.3 µM			441 µM						60.8 µM				
CC(=O)Oc1ccccc1C(=O)O [ASPIRIN]			54.3%															22.3	
COc1ccc2c(c1)c(CC(=O)O)c(C)n2C(=O)c1ccc(Cl)cc1 [INDOMETHACIN]	32.3%			33.6%			42.2%	37.1%											48.1%
C#CCN(C)Cc1ccccc1 [PARGYLINE]						390 µM			2.85 µM										
